Assay results from article PMC7367925, “The EU-ToxRisk method documentation, data processing and chemical testing pipeline for the regulatory use of new approach methods” (Archives of Toxicology, 2020).
Where two headings read alike, the source gives them in different places.

What was measured:
[1] = tested on: p53-dependent pathway activation / genotoxicity; format: cell-based, human; settings: for PoD p53: 24 h exposure, lowest effect level FI=1.5, means from 3 assay runs
Experimental: (§1) After 24 h, exposure medium was prepared. […] All samples were tested in triplicates. […] Fig. SM_4. […] Fig. SM_4.
(§2) Supplementary Material SM_4
(§3) Overview of CALUX assays.
(§4) This is defined as the concentration of test compound […]
(§5) for an antagonist assay is a PC20.
(§6) PC = positive control. FI = fold induction. PC10: concentration where test compound causes an activation equal to 10% of the maximum effect (positive control). PC20: concentration where test compound causes […]
(§7) FI=1.5: concentration where test
(§8) (A) exemplary graph of concentration- […]
(§9) receptor antagonism assay with PC20 as lowest-effect-level. (C) exemplary graph for assay with 1.5 fold inductionas lowest effect level. 9

Pregnane X receptor = biological target: T1, Pregnane X receptor (Homo sapiens, UniProt O75469); assay: PXR CALUX; format: cell-based; settings: 24 h exposure, lowest effect level PC10, means from 3 assay runs
T1 construct: host or cells: U-2 OS
T1 sequence (O75469 1-434): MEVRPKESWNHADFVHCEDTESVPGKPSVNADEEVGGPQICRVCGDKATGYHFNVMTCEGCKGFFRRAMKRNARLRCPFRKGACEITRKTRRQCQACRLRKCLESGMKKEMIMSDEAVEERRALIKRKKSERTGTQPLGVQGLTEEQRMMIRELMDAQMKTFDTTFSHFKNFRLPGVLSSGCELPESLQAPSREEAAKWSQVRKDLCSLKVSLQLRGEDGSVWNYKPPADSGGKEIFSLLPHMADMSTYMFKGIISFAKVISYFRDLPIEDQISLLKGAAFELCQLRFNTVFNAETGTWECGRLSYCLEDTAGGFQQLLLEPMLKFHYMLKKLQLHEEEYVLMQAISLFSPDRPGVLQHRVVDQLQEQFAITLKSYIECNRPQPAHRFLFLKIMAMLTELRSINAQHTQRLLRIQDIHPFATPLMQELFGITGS
Experimental: as §1, §2, §3, §4, §5, §6, §7, §8, §9

[2] = pooled test systems of the NAM panel (all test methods)
[3] = tested on: U-2 OS reporter cell lines battery; assay: CALUX reporter gene assay battery as a whole
[4] = parameters: method as in Hardman JG 2001; settings: known Cmax in man; ref Hardman JG 2001; cited from earlier work
U-2 OS cells [5] = assay: Cytotox CALUX; settings: for PoD cytotoxicity: 24 h exposure, lowest effect level PC20, means from 3 assay runs
Androgen receptor = biological target: T2, Androgen receptor (Homo sapiens, UniProt P10275); format: cell-based; settings: 24 h exposure, lowest effect level PC20, reference agonist at EC50, means from 3 assay runs
T2 construct: host or cells: U-2 OS
T2 sequence (P10275 1-920): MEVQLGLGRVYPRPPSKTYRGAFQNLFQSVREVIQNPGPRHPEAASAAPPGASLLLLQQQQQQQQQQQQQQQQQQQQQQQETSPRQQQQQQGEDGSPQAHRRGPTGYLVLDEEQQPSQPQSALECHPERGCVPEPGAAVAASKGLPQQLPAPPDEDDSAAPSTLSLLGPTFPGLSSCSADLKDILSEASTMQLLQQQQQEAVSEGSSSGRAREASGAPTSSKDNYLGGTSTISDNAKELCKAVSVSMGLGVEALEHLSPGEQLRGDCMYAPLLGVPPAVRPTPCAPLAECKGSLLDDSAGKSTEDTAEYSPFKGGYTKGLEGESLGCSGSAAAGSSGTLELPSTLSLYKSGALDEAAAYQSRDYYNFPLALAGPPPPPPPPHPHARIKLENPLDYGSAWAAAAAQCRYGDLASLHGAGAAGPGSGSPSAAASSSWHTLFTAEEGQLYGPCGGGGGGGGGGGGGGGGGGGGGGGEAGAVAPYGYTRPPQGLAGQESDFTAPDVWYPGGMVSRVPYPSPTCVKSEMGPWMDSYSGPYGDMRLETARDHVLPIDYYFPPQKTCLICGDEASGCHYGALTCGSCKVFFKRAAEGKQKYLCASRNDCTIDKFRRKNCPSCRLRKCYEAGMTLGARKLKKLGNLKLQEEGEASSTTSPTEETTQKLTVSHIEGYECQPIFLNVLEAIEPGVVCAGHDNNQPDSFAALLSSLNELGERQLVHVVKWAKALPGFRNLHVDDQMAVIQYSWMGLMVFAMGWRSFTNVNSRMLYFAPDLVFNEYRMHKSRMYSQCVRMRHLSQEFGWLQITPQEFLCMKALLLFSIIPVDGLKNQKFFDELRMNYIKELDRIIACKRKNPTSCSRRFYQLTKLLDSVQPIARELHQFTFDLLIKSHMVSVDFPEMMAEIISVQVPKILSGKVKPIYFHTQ
Experimental: as §1, §2, §3, §4, §5, §6, §7, §8, §9

[6] = biological target: T3, Thyroid hormone receptor beta (Homo sapiens, UniProt P10828); assay: TRb-anti CALUX; format: cell-based; settings: 24 h exposure, lowest effect level PC20, reference agonist at EC50, means from 3 assay runs
T3 construct: host or cells: U-2 OS
T3 sequence (P10828 1-461): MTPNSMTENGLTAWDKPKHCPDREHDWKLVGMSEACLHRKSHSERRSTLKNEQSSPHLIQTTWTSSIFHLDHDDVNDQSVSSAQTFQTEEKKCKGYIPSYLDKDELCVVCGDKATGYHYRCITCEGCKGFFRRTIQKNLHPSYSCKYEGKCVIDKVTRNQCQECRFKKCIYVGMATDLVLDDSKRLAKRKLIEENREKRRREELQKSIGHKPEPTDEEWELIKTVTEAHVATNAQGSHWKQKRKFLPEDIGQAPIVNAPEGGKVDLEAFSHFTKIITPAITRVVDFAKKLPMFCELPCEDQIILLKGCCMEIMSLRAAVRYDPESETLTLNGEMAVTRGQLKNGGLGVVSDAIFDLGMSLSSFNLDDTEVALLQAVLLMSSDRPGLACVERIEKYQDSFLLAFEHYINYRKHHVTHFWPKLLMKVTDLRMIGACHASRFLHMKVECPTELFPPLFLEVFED
Experimental: as §1
Cell line Endpoint effect Reference compound […]
Cytotox CALUX Cytoxicity PC20 tributyltinacetate
as §2, §3, §4, §5, §6, §7, §8, §9

Nrf2 (Oxidative stress) = assay: Nrf2 CALUX; format: cell-based, human; settings: 24 h exposure, lowest effect level FI=1.5, means from 3 assay runs
Experimental: as §1, §2, §3, §4, §5, §6, §7, §8, §9

U-2 OS cells [7] = settings: human
[8] = tested on: Endoplasmic reticulum stress; assay: ESRE CALUX; format: cell-based, human; settings: 24 h exposure, lowest effect level PC10, means from 3 assay runs
Experimental: as §1, §2, §3, §4, §5, §6, §7, §8, §9

Progesterone receptor = biological target: T4, Progesterone receptor (Homo sapiens, UniProt P06401); assay: PR-anti CALUX; format: cell-based; settings: 24 h exposure, lowest effect level PC20, reference agonist at EC50, means from 3 assay runs
T4 construct: host or cells: U-2 OS
T4 sequence (P06401 1-933): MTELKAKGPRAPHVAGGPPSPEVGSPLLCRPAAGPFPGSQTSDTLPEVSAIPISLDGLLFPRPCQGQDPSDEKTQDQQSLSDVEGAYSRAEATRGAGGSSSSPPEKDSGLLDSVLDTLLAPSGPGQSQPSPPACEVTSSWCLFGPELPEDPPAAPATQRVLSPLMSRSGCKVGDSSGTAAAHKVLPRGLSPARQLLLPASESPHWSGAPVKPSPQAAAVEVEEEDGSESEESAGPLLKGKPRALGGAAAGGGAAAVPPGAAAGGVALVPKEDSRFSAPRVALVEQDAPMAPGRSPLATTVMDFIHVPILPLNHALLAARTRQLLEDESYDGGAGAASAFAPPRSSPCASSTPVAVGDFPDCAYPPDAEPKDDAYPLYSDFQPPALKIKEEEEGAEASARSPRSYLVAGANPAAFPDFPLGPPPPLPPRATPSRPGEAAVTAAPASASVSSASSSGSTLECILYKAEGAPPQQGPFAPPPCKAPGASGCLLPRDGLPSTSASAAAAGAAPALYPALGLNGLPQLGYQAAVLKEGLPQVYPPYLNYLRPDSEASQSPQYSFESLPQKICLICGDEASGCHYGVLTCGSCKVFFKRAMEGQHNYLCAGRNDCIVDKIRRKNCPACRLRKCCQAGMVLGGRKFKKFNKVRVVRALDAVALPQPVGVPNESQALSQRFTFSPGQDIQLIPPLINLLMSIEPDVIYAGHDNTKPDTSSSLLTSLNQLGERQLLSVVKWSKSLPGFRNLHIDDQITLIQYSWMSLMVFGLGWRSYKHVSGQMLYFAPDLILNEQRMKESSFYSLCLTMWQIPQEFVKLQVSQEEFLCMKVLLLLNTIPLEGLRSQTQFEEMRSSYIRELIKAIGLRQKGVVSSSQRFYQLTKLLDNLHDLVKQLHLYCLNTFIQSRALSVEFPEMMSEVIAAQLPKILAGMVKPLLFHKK
Experimental: as §1, §2, §3, §4, §5, §6, §7, §8, §9

[9] = tested on: Transcription of p21 inhibitor of cell cycle progression; assay: p21 CALUX; format: cell-based, human; settings: 24 h exposure, lowest effect level PC10, means from 3 assay runs
Experimental: as §1, §2, §3, §4, §5, §6, §7, §8, §9

[10] = all CALUX assays, 13 concentrations, 24 h exposure

SMILES | PoD p53 [1] | viability [2] [%] | response profile over the CALUX battery (in words) [3, 10] | Cmax [4] [µM] | PoD cytotoxicity (U-2 OS cells [5]) | also measured
CNC(=O)Oc1cccc2ccccc12 [Carbaryl] | 3.8 -log(M) | – | – | – | – | PoD PXR - ago (Pregnane X receptor): 4.0 -log(M)
CCOC(=O)C(C)(C)Oc1ccc(Cl)cc1 [Clofibrate] | – | 100 | no effect | – | – | –
COc1cc2c(c(OC)c1OC)-c1ccc(OC)c(=O)cc1[C@@H](NC(C)=O)CC2 [Colchicine] | – | – | – | 449 | 7.3 -log(M) | cytotoxic concentration (U-2 OS cells [5]): 50 nM
Oc1c(Cl)cc(Cl)c(Cl)c1Cc1c(O)c(Cl)cc(Cl)c1Cl [Hexachlorophene] | – | – | only activated nuclear hormone receptor related assays | – | 5.5 -log(M) | PoD AR - anta (Androgen receptor): 5.7 -log(M); PoD TRβ - anta [6]: 6.0 -log(M)
C[n+]1ccc(-c2ccccc2)cc1 [MPP^+, methyl-phenyl-pyridinium] | – | – | no effect | – | – | –
CO[C@H]1/C=C/O[C@@]2(C)Oc3c(C)c(O)c4c(O)c(c(/C=N/N5CCN(C)CC5)c(O)c4c3C2=O)NC(=O)/C(C)=C\C=C\[C@H](C)[C@H](O)[C@@H](C)[C@@H](O)[C@@H](C)[C@H](OC(C)=O)[C@@H]1C [Rifampicin] | 4.2 -log(M) | – | – | – | – | PoD Nrf2 (Nrf2 (Oxidative stress)): 4.6 -log(M); PoD cytotoxicity (U-2 OS cells [7]): 4.0; PoD ESRE [8]: 4.0 -log(M); PoD PXR - ago (Pregnane X receptor): 7.1 -log(M); PoD PR - anta (Progesterone receptor): 4.8 -log(M); response profile over the CALUX battery (in words) [3]: additionally activated several stress pathway related assays
C=C(C)[C@H]1Cc2c(ccc3c2O[C@@H]2COc4cc(OC)c(OC)cc4[C@@H]2C3=O)O1 [Rotenone] | 6.8 -log(M) | – | – | – | 5.7 -log(M) | –
Cc1noc(NS(=O)(=O)c2ccc(N)cc2)c1C [Sulfisoxazole] | – | 100 | no effect | 464 | – | –
CC(=O)O[C@H]1C(=O)[C@@]2(C)[C@H]([C@H](OC(=O)c3ccccc3)[C@]3(O)C[C@H](OC(=O)[C@H](O)[C@@H](NC(=O)c4ccccc4)c4ccccc4)C(C)=C1C3(C)C)[C@]1(OC(C)=O)CO[C@@H]1C[C@@H]2O [Taxol] | 8.2 -log(M) | – | – | – | – | concentration activating expression of p53 [1]: < 10 nM; PoD AR - anta (Androgen receptor): 7.3 -log(M); PoD cytotoxicity (U-2 OS cells [7]): 5.6; cytotoxic concentration (U-2 OS cells [7]): about 2.5 µM; PoD TRβ - anta [6]: 7.4 -log(M); PoD PR - anta (Progesterone receptor): 7.4 -log(M); PoD p21 [9]: 8.0 -log(M)
CCCCNC(=O)NS(=O)(=O)c1ccc(C)cc1 [Tolbutamide] | – | 100 | – | 196 | – | –
